# Measured values reported in ChEMBL document CHEMBL4837202, “Design, synthesis of novel celastrol derivatives and study on their antitumor growth through HIF-1α pathway” (Eur J Med Chem, 2021).
# Activity calls are given as the source filed them. The rule behind the calls is not given here.
# Assays:
# [1] = test system: Hep 3B2; assay: Cytotoxicity against human Hep3B cells assessed as reduction in cell viability incubated for 24 hrs under normaxic condition by MTT assay; assay type: cell-based
# [2] = test system: HCT-116; assay: Antitumour activity against human HCT-116 cells xenografted in nude BALB/c mouse assessed as tumour growth inhibition at 10 mg/kg, ip administered for 20 days relative to control; assay type: functional; set-up: scale not given: the % may be the effect or the level left; details: time 20 day
# [3] = Toxicity in BALB/c mouse xenografted […] HCT-116 cells assessed as effect on body weight at 10 mg/kg, ip administered every day measured after 21 days; assay type: organism-based; details: in vivo, 504 h, time 21 day
# [4] = test system: HCT-116; assay: Antitumour activity against human HCT-116 cells xenografted BALB/c mouse with assessed as morphological changes in tumour tissue at 10 mg/kg, ip administered every day measured after 21 days H and E staining based optical microscopic method; assay type: functional, organism-based; details: time 21.0 day
# [5] = Solubility of the compound in water measured by UV-Visible spectral analysis; assay type: physicochemical
# [6] = test system: Hep 3B2; assay: Induction of apoptosis in human Hep3B cells assessed as necrotic cells at 1 uM incubated for 24 hrs by PI and annexin V-FITC staining based flow cytometry (reference value: 0.1%); assay type: functional
# [7] = test system: Hep 3B2; assay: Inhibition of cell migration in human Hep3B cells at incubated for 48 hrs by scratch wound healing assay; assay type: functional, cell-based; details: dose 1-10 µM
# [8] = test system: Hep 3B2; assay: Induction of apoptosis in human Hep3B cells assessed as early apoptotic cells at 3 uM incubated for 24 hrs by PI and annexin V-FITC staining based flow cytometry (reference value: 1.2%); assay type: functional
# [9] = test system: Hep 3B2; assay: Induction of apoptosis in human Hep3B cells assessed as viable cells at 10 uM incubated for 24 hrs by PI and annexin V-FITC staining based flow cytometry (reference value: 97.0%); assay type: functional; details: read-out: Activity
# [10] = test system: Hep 3B2; assay: Inhibition of cell migration in human Hep3B cells at incubated for 24 hrs by scratch wound healing assay; assay type: functional, cell-based; details: dose 1-10 µM
# [11] = test system: HCT-116; assay: Antitumour activity against human HCT-116 cells xenografted BALB/c mouse with assessed as morphological changes in tumour tissue at 5 mg/kg, ip administered every day measured after 21 days H and E staining based optical microscopic method; assay type: functional, organism-based; details: time 21.0 day
# [12] = test system: Hep 3B2; assay: Induction of apoptosis in human Hep3B cells assessed as viable cells at 1 uM incubated for 24 hrs by PI and annexin V-FITC staining based flow cytometry (reference value: 97.0%); assay type: functional; details: read-out: Activity
# [13] = test system: Hep 3B2; assay: Inhibition of hypoxia-induced HIF1alpha protein expression in human Hep3B cells incubated for 12 hrs in presence of 1% O2 under hypoxic condition by Western blot analysis; assay type: functional, cell-based; details: dose 1-10 µM
# [14] = test system: Hep 3B2; assay: Induction of apoptosis in human Hep3B cells assessed as late apoptotic cells at 10 uM incubated for 24 hrs by PI and annexin V-FITC staining based flow cytometry (reference value: 1.6%); assay type: functional
# [15] = test system: Hep 3B2; assay: Induction of apoptosis in human Hep3B cells assessed as necrotic cells at 3 uM incubated for 24 hrs by PI and annexin V-FITC staining based flow cytometry (reference value: 0.1%); assay type: functional
# [16] = test system: HCT-116; assay: Antitumour activity against human HCT-116 cells xenografted in nude BALB/c mouse assessed as tumour growth inhibition at 5 mg/kg, ip administered for 20 days relative to control; assay type: functional; set-up: scale not given: the % may be the effect or the level left; details: time 20 day
# [17] = test system: Hep 3B2; assay: Induction of apoptosis in human Hep3B cells assessed as necrotic cells at 10 uM incubated for 24 hrs by PI and annexin V-FITC staining based flow cytometry (reference value: 0.1%); assay type: functional
# [18] = test system: Hep 3B2; assay: Induction of apoptosis in human Hep3B cells assessed as late apoptotic cells at 1 uM incubated for 24 hrs by PI and annexin V-FITC staining based flow cytometry (reference value: 1.6%); assay type: functional
# [19] = test system: Hep 3B2; assay: Induction of apoptosis in human Hep3B cells assessed as late apoptotic cells at 3 uM incubated for 24 hrs by PI and annexin V-FITC staining based flow cytometry (reference value: 1.6%); assay type: functional
# [20] = test system: Hep 3B2; assay: Induction of apoptosis in human Hep3B cells assessed as early apoptotic cells at 10 uM incubated for 24 hrs by PI and annexin V-FITC staining based flow cytometry (reference value: 1.2%); assay type: functional
# [21] = Toxicity in BALB/c mouse xenografted […] HCT-116 cells assessed as effect on body weight at 5 mg/kg, ip administered every day measured after 21 days; assay type: organism-based; details: in vivo, 504 h, time 21 day
# [22] = test system: Hep 3B2; assay: Antiproliferative activity against human Hep3B cells assessed as reduction in colony formation incubated for 7 days by crystal violet staining based assay; assay type: functional, cell-based; details: dose 1-10 µM, time 7.0 day
# [23] = test system: Hep 3B2; assay: Induction of apoptosis in human Hep3B cells assessed as early apoptotic cells at 1 uM incubated for 24 hrs by PI and annexin V-FITC staining based flow cytometry (reference value: 1.2%); assay type: functional
# [24] = test system: Hep 3B2; assay: Induction of apoptosis in human Hep3B cells assessed as viable cells at 3 uM incubated for 24 hrs by PI and annexin V-FITC staining based flow cytometry (reference value: 97.0%); assay type: functional; details: read-out: Activity
smiles,measurement,setting,value
COc1ccc(-n2cc(CNC(=O)COC(=O)[C@]3(C)CC[C@]4(C)CC[C@]5(C)C6=CC=C7C(=CC(=O)C(O)=C7C)[C@]6(C)CC[C@@]5(C)[C@@H]4C3)nn2)cc1,IC50,[1],9.11 µM
CC1=C(O)C(=O)C=C2C1=CC=C1[C@@]2(C)CC[C@@]2(C)[C@@H]3C[C@](C)(C(=O)OCCOc4ccc5ccc(=O)oc5c4)CC[C@]3(C)CC[C@]12C,IC50,[1],2.45 µM
CC1=C(O)C(=O)C=C2C1=CC=C1[C@@]2(C)CC[C@@]2(C)[C@@H]3C[C@](C)(C(=O)OCC(=O)Nc4cc(C)on4)CC[C@]3(C)CC[C@]12C,IC50,[1],3.07 µM
CC1=C(O)C(=O)C=C2C1=CC=C1[C@@]2(C)CC[C@@]2(C)[C@@H]3C[C@](C)(C(=O)OCCOc4cccc5ncccc45)CC[C@]3(C)CC[C@]12C,IC50,[1],14.4 µM
CC1=C(O)C(=O)C=C2C1=CC=C1[C@@]2(C)CC[C@@]2(C)[C@@H]3C[C@](C)(C(=O)OCC(=O)Nc4ccncc4)CC[C@]3(C)CC[C@]12C,IC50,[1],234 µM
CCOP(=O)(OCC)C(NC(=O)COC(=O)[C@]1(C)CC[C@]2(C)CC[C@]3(C)C4=CC=C5C(=CC(=O)C(O)=C5C)[C@]4(C)CC[C@@]3(C)[C@@H]2C1)c1ccc(OC)cc1 (some centres not stated),IC50,[1],1.48 µM
CC1=C(O)C(=O)C=C2C1=CC=C1[C@@]2(C)CC[C@@]2(C)[C@@H]3C[C@](C)(C(=O)OCC(=O)NCc4cn(-c5ccccc5)nn4)CC[C@]3(C)CC[C@]12C,IC50,[1],1.16 µM
CC1=C(O)C(=O)C=C2C1=CC=C1[C@@]2(C)CC[C@@]2(C)[C@@H]3C[C@](C)(C(=O)OCCOc4cc(=O)oc5ccccc45)CC[C@]3(C)CC[C@]12C,IC50,[1],134 µM
CC1=C(O)C(=O)C=C2C1=CC=C1[C@@]2(C)CC[C@@]2(C)[C@@H]3C[C@](C)(C(=O)OCCOc4ccc5cccnc5c4)CC[C@]3(C)CC[C@]12C,IC50,[1],5.27 µM
CC1=C(O)C(=O)C=C2C1=CC=C1[C@@]2(C)CC[C@@]2(C)[C@@H]3C[C@](C)(C(=O)OCC(=O)Nc4cccc5cccnc45)CC[C@]3(C)CC[C@]12C,IC50,[1],1.69 µM
O=c1[nH]cc(F)c(=O)[nH]1 [FLUOROURACIL],Activity,[2],59.58%
same,Activity,[3],Non-Toxic
same,Activity,[4],Active
CC1=C(O)C(=O)C=C2C1=CC=C1[C@@]2(C)CC[C@@]2(C)[C@@H]3C[C@](C)(C(=O)OCC(=O)NCc4cn(-c5ccc(Cl)cc5)nn4)CC[C@]3(C)CC[C@]12C,IC50,[1],21.9 µM
CC1=C(O)C(=O)C=C2C1=CC=C1[C@@]2(C)CC[C@@]2(C)[C@@H]3C[C@](C)(C(=O)OCC(=O)Nc4ccc(F)cn4)CC[C@]3(C)CC[C@]12C,IC50,[1],1.26 µM
CC1=C(O)C(=O)C=C2C1=CC=C1[C@@]2(C)CC[C@@]2(C)[C@@H]3C[C@](C)(C(=O)OCC(=O)Nc4ccc5ncccc5c4)CC[C@]3(C)CC[C@]12C,IC50,[1],2.91 µM
CC1=C(O)C(=O)C=C2C1=CC=C1[C@@]2(C)CC[C@@]2(C)[C@@H]3C[C@](C)(C(=O)OCC(=O)Nc4cnc5ccccc5c4)CC[C@]3(C)CC[C@]12C,IC50,[1],1.04 µM
CCOP(=O)(OCC)C(NC(=O)COC(=O)[C@]1(C)CC[C@]2(C)CC[C@]3(C)C4=CC=C5C(=CC(=O)C(O)=C5C)[C@]4(C)CC[C@@]3(C)[C@@H]2C1)c1ccc(C)cc1 (some centres not stated),IC50,[1],4.55 µM
CC1=C(O)C(=O)C=C2C1=CC=C1[C@@]2(C)CC[C@@]2(C)[C@@H]3C[C@](C)(C(=O)O)CC[C@]3(C)CC[C@]12C [CELASTROL],IC50,[1],0.76 µM
same,solubility,[5],38.2 µg/mL
CC1=C(O)C(=O)C=C2C1=CC=C1[C@@]2(C)CC[C@@]2(C)[C@@H]3C[C@](C)(C(=O)OCC(=O)NCc4cn(-c5ccc(C)cc5)nn4)CC[C@]3(C)CC[C@]12C,IC50,[1],2.72 µM
CCOP(=O)(OCC)C(NC(=O)COC(=O)[C@]1(C)CC[C@]2(C)CC[C@]3(C)C4=CC=C5C(=CC(=O)C(O)=C5C)[C@]4(C)CC[C@@]3(C)[C@@H]2C1)c1ccccc1 (some centres not stated),IC50,[1],1.17 µM
CC1=C(O)C(=O)C=C2C1=CC=C1[C@@]2(C)CC[C@@]2(C)[C@@H]3C[C@](C)(C(=O)OCCOc4cnc5ccccc5c4)CC[C@]3(C)CC[C@]12C,Activity,[6],0.2%
same,IC50,[1],16.9 µM
same,inhibition,[7],Dose-Dependent Effect
same,Activity,[8],1.9%
same,viability at 10 µM,[9],87.9%
same,inhibition,[10],Dose-Dependent Effect
same,Activity,[11],Active
same,Activity,[2],74.3%
same,viability at 1 µM,[12],96.6%
same,Activity,[13],Dose-Dependent Effect
same,Activity,[14],5.7%
same,Activity,[15],0%
same,Activity,[16],60.38%
same,Activity,[17],0.2%
same,Activity,[18],1.4%
same,Activity,[19],2%
same,Activity,[20],6.2%
same,Activity,[21],Non-Toxic
same,solubility,[5],28.1 µg/mL
same,Activity,[3],Non-Toxic
same,Activity,[22],Dose-Dependent Effect
same,Activity,[4],Active
same,Activity,[23],1.9%
same,viability at 3 µM,[24],96.1%
CCOP(=O)(OCC)C(NC(=O)COC(=O)[C@]1(C)CC[C@]2(C)CC[C@]3(C)C4=CC=C5C(=CC(=O)C(O)=C5C)[C@]4(C)CC[C@@]3(C)[C@@H]2C1)c1ccc(F)cc1 (some centres not stated),IC50,[1],2.33 µM
CC1=C(O)C(=O)C=C2C1=CC=C1[C@@]2(C)CC[C@@]2(C)[C@@H]3C[C@](C)(C(=O)OCC(=O)Nc4ccc(F)nc4)CC[C@]3(C)CC[C@]12C,IC50,[1],4.21 µM
CC1=C(O)C(=O)C=C2C1=CC=C1[C@@]2(C)CC[C@@]2(C)[C@@H]3C[C@](C)(C(=O)OCC(=O)Nc4ccnc5ccccc45)CC[C@]3(C)CC[C@]12C,IC50,[1],4 µM
CC1=C(O)C(=O)C=C2C1=CC=C1[C@@]2(C)CC[C@@]2(C)[C@@H]3C[C@](C)(C(=O)OCC(=O)Nc4cccc5ncccc45)CC[C@]3(C)CC[C@]12C,IC50,[1],1.11 µM
CC1=C(O)C(=O)C=C2C1=CC=C1[C@@]2(C)CC[C@@]2(C)[C@@H]3C[C@](C)(C(=O)OCCOc4cc(C)oc(=O)c4)CC[C@]3(C)CC[C@]12C,IC50,[1],1.16 µM
CC1=C(O)C(=O)C=C2C1=CC=C1[C@@]2(C)CC[C@@]2(C)[C@@H]3C[C@](C)(C(=O)OCC(=O)NCc4cn(-c5ccc(Cl)c(Cl)c5)nn4)CC[C@]3(C)CC[C@]12C,IC50,[1],2.45 µM
